The record followed here is ChEMBL document CHEMBL1133646 (J Med Chem, 2000).

What all share (type): functional
Test [1] deals with Mus musculus. Kind of test: Survival rate of mice infected with A/Turkey/Mass/76 XA/Beijing/32/92 (H6N2) virus at a dose of 0.1 mg/kg/day; 7/9 (7 survived out of 9 mice).
Test [2] concerns Mus musculus. Briefly: Mean day to death of mice at 0.1 mg/kg/day.
For test [3], the system named is Mus musculus. Briefly: Mean day to death of mice at 0 mg/kg/day.
The subject of test [4] is Mus musculus. Briefly: Survival rate of mice infected with A/Turkey/Mass/76 XA/Beijing/32/92 (H6N2) virus at a dose of 0 mg/kg/day; 1/9 (1 survived out of 9 mice).
The test system of test [5] is Mus musculus. Briefly: Survival rate of mice infected with A/Turkey/Mass/76 XA/Beijing/32/92 (H6N2) virus at a dose of 1.0 mg/kg/day; 9/9 (9 survived out of 9 mice).

As to `CCC(CC)[C@H](NC(C)=O)[C@@H]1[C@H](O)[C@@H](C(=O)O)C[C@H]1NC(=N)N` [PERAMIVIR ANHYDROUS], the values for the Survival with Mus musculus [1], with Mus musculus [4] and with Mus musculus [5] were below 7, 1 and below 9, respectively. Besides, the Mean day with Mus musculus [2] worked out at 9; with Mus musculus [3], 8.8.
